Reference: article PMC11747885, “Potent inhibitors of the human RNA ligase Rlig1 highlights its role in RNA integrity maintenance under oxidative cellular stress” (Chemical Science, 2025)
“And” between values parts separate entries of the source, which are not always exact repeats. Equal values may be shown once. “Also recorded” adds a separate entry of the source. Marks after values point to notes of the source that are not given here.

How the values were obtained:
[1] = Cell viability assay of HEK293 cells treated with inhibitors and menadione; format: cell-based, human; conditions: human, HEK293 cells, w/o Menadione; for viability at 7.5 µM: 7.5 µM compound; for viability at 15 µM: 15 µM compound; for viability at 30 µM: 30 µM compound; for viability at 60 µM: 60 µM compound
HEK293 cells [2] = assay: as above; format: cell-based, human; conditions: for Mean Diff, (Predicted (LS) mean diff,) w/o menadione - w menadione: 2 way ANOVA, Šídák's multiple comparisons test, normalised viability
in vitro = conditions: human
Rlig1-AMP = target: T1, Rlig1-AMP (Homo sapiens, UniProt Q8N999); assay: Radioactive RNA ligation assay (hit validation, 10 µM test and IC50 determination); format: biochemical
T1 construct: made in house; host or cells: E. coli BL21 (DE3), pET15b-Rlig1
T1 sequence (Q8N999 whole entry): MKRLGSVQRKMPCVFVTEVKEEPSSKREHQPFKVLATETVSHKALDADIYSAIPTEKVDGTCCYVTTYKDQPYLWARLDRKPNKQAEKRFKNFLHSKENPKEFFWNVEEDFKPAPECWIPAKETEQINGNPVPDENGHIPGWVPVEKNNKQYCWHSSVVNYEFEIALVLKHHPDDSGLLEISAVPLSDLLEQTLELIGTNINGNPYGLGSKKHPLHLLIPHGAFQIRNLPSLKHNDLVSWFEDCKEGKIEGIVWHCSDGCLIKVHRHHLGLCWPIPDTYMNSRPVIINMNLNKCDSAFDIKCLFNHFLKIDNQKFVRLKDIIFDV

HEK293 cells [3] = assay: Cell viability assay of HEK293 cells treated with inhibitors (CellTiter-Glo)
[4] = 20240508 plate 012, DMSO Ko no Mendione = 100
[5] = 20240508 plate 013, DMSO Ko no Mendione = 100
[6] = 20240515 plate 014, DMSO Ko no Mendione = 100
[7] = 20240515 plate 015, DMSO Ko no Mendione = 100
[8] = log(inhibitor) vs. response, variable slope (four parameters)

SMILES: Nc1cc(Nc2ccc(NC(=O)c3ccc(Nc4ccnc5ccccc45)cc3)cc2)ccn1 [Compound 36]
- viability at 7.5 µM [1, 4]: 91%
- viability at 7.5 µM [1, 5]: 101%
- viability at 7.5 µM [1, 6]: 96%
- viability at 7.5 µM [1, 7]: 89%
- viability at 15 µM [1, 4]: 98.9%
- viability at 15 µM [1, 5]: 99.3%
- viability at 15 µM [1, 6]: 94.8%
- viability at 15 µM [1, 7]: 94.9%
- viability at 30 µM [1, 4]: 85.2%
- viability at 30 µM [1, 5]: 98.7%
- viability at 30 µM [1, 6]: 89.7%
- viability at 30 µM [1, 7]: 81.9%
- viability at 60 µM [1, 4]: 82.1%
- viability at 60 µM [1, 5]: 89.4%
- viability at 60 µM [1, 6]: 88.4%
- viability at 60 µM [1, 7]: 79.5%
- Mean Diff, (Predicted (LS) mean diff,) w/o menadione - w menadione (HEK293 cells [2]; 7.5 µM compound): 8.308
- Cell viability raw signal, technical replicates (HEK293 cells [2]; 7.5 µM compound, w Menadione (40µM), 20240508 plate 012): 27030 and 23198 and 28223 and 26549
- Cell viability raw signal, technical replicates (HEK293 cells [2]; 7.5 µM compound, w Menadione (40µM), 20240508 plate 013): 27603 and 23558 and 27792 and 26913
- Cell viability raw signal, technical replicates (HEK293 cells [2]; 7.5 µM compound, w Menadione (40µM), 20240515 plate 014): 28096 and 25755 and 28850 and 30838
- Cell viability raw signal, technical replicates (HEK293 cells [2]; 7.5 µM compound, w Menadione (40µM), 20240515 plate 015): 27895 and 33778 and 30188 and 31212
- Cell viability raw signal, technical replicates (HEK293 cells [2]; 7.5 µM compound, w/o Menadione, 20240508 plate 012): 385210 and 396370 and 371980 and 372320
- Cell viability raw signal, technical replicates (HEK293 cells [2]; 7.5 µM compound, w/o Menadione, 20240508 plate 013): 405510 and 393590 and 402690 and 387370
- Cell viability raw signal, technical replicates (HEK293 cells [2]; 7.5 µM compound, w/o Menadione, 20240515 plate 014): 380800 and 387250 and 402000 and 397370
- Cell viability raw signal, technical replicates (HEK293 cells [2]; 7.5 µM compound, w/o Menadione, 20240515 plate 015): 356280 and 367960 and 366010 and 366080
- Mean Diff, (Predicted (LS) mean diff,) w/o menadione - w menadione (HEK293 cells [2]; 15 µM compound): 17.8
- Cell viability raw signal, technical replicates (HEK293 cells [2]; 15 µM compound, w Menadione (40µM), 20240508 plate 012): 22111 and 21413 and 21368 and 22937
- Cell viability raw signal, technical replicates (HEK293 cells [2]; 15 µM compound, w Menadione (40µM), 20240508 plate 013): 69935* and 23670 and 27045 and 22274
- Cell viability raw signal, technical replicates (HEK293 cells [2]; 15 µM compound, w Menadione (40µM), 20240515 plate 014): 28312 and 27245 and 29168 and 29878
- Cell viability raw signal, technical replicates (HEK293 cells [2]; 15 µM compound, w Menadione (40µM), 20240515 plate 015): 27690 and 32043 and 28425 and 26586
- Mean Diff, (Predicted (LS) mean diff,) w/o menadione - w menadione (HEK293 cells [2]; 30 µM compound): 11.65
- Cell viability raw signal, technical replicates (HEK293 cells [2]; 30 µM compound, w Menadione (40µM), 20240508 plate 012): 24245 and 20350 and 24935 and 20723
- Cell viability raw signal, technical replicates (HEK293 cells [2]; 30 µM compound, w Menadione (40µM), 20240508 plate 013): 21997 and 20914 and 24666 and 21857
- Cell viability raw signal, technical replicates (HEK293 cells [2]; 30 µM compound, w Menadione (40µM), 20240515 plate 014): 26699 and 30187 and 27245 and 26622
- Cell viability raw signal, technical replicates (HEK293 cells [2]; 30 µM compound, w Menadione (40µM), 20240515 plate 015): 24014 and 26245 and 23994 and 40225
- Cell viability raw signal, technical replicates (HEK293 cells [2]; 30 µM compound, w/o Menadione, 20240508 plate 012): 348650 and 347840 and 366110 and 365510
- Mean Diff, (Predicted (LS) mean diff,) w/o menadione - w menadione (HEK293 cells [2]; 60 µM compound): 4.361
- Cell viability raw signal, technical replicates (HEK293 cells [2]; 60 µM compound, w Menadione (40µM), 20240508 plate 012): 158210* and 163010* and 19082* and 18545*
- Cell viability raw signal, technical replicates (HEK293 cells [2]; 60 µM compound, w Menadione (40µM), 20240508 plate 013): 166210* and 174600* and 20028* and 18681*
- Cell viability raw signal, technical replicates (HEK293 cells [2]; 60 µM compound, w Menadione (40µM), 20240515 plate 014): 33336 and 33031 and 28059 and 24828
- Cell viability raw signal, technical replicates (HEK293 cells [2]; 60 µM compound, w Menadione (40µM), 20240515 plate 015): 185100* and 184480* and 111650* and 66878*
- Cell viability raw signal, technical replicates (HEK293 cells [2]; 60 µM compound, w/o Menadione, 20240508 plate 012): 344220 and 331510 and 355900 and 344190
- Cell viability raw signal, technical replicates (HEK293 cells [2]; 60 µM compound, w/o Menadione, 20240508 plate 013): 348460 and 354210 and 355750 and 353860
- Cell viability raw signal, technical replicates (HEK293 cells [2]; 60 µM compound, w/o Menadione, 20240515 plate 014): 336500 and 373330 and 357790 and 375230
- Cell viability raw signal, technical replicates (HEK293 cells [2]; 60 µM compound, w/o Menadione, 20240515 plate 015): 321900 and 321160 and 330420 and 326560
- viability at 24 h, 0.234375 µM (in vitro): 106%
- viability at 24 h, 0.46875 µM (in vitro): 99.9%
- viability at 24 h, 0.9375 µM (in vitro): 104%
- viability at 24 h, 1.875 µM (in vitro): 99.2%
- viability at 24 h, 3.75 µM (in vitro): 93.6%
- viability at 24 h, 7.5 µM (in vitro): 93.9%
- viability at 24 h, 15 µM (in vitro): 86.8%
- viability at 24 h, 30 µM (in vitro): 90.4%
- inhibition of Rlig1-AMP ligation (urea-PAGE) (Rlig1-AMP; 10 μM compound, 500 nM Rlig1-AMP, 20 min 37 °C): Ligation was inhibited; also recorded: fully inhibited
- HillSlope (best-fit value) (Rlig1-AMP; four-parameter fit): 3.369
- Span (best-fit value) (Rlig1-AMP; four-parameter fit): 96.63
- IC50 (Rlig1-AMP; four-parameter fit, n = 3, read-out: IC50 (best-fit value)): 3.86 µM
- inhibition at 30 µM (Rlig1-AMP; log Compound [µM] 1.47712, replicates I-III, read-out: percentage inhibition (dose response curve for IC50)): 100%
- inhibition at 0.9375 µM (Rlig1-AMP; log Compound [µM] -0.0280287, replicates I-III, read-out: percentage inhibition (dose response curve for IC50)): 5.58%
- inhibition at 0.46875 µM (Rlig1-AMP; log Compound [µM] -0.329059, replicates I-III, read-out: percentage inhibition (dose response curve for IC50)): 2.58%
- LogIC50 (best-fit value) (Rlig1-AMP; log of µM, four-parameter fit): 0.5866
- Bottom (best-fit value) (Rlig1-AMP; [8]): 4.368
- Top (best-fit value) (Rlig1-AMP; [8]): 101
- cytotoxicity (in words) (HEK293 cells [3]; HEK293, 24 h, up to 30 μM): no detectable cytotoxicity
- IC50 (Figure 3D: EC50 values for plot; log(inhibitor) vs. response -- Variable slope (four parameters)) (HEK293 cells [3]; HEK293 cell viability, fit per plate (3 plates, 4 technical replicates each), highest tested concentration 30 µM): 2607.3 µM and 1652.85 µM and 299.495 µM
- LogIC50 (log(inhibitor) vs. response -- Variable slope (four parameters)) (HEK293 cells [3]; HEK293 cell viability, fit per plate (3 plates, 4 technical replicates each), log of [µM]): 3.416 and 3.218 and 2.476
- EC50 (HEK293 cells [3]; Homo sapiens, HEK293, 24 h): > 30 µM
